Results from ChEMBL document CHEMBL4007500, “Cyclic mu-opioid receptor ligands containing multiple N-methylated amino acid residues” (Bioorg Med Chem Lett, 2017).
Active and inactive are the calls of the source. The rule behind the calls is not given here.

Columns and labels:
[1] = target: Kappa-type opioid receptor (Homo sapiens) (UniProt P41145); assay: Agonist activity at human recombinant KOR expressed in CHO cells assessed as calcium mobilization up to 1 uM by Fluo-4 AM based fluorescence analysis; assay type: functional, cell-based
Mu-type opioid receptor [2] = target: T1, Mu-type opioid receptor (Homo sapiens, UniProt P35372); assay: Agonist activity at human recombinant MOR expressed in CHO cells assessed as calcium mobilization by Fluo-4 AM based fluorescence analysis; assay type: functional, cell-based
[3] = Stability of compound in Wistar rat brain homogenate assessed as compound remaining at 0.5 mM after 90 mins by RP-HPLC analysis; assay type: ADME, tissue-based; conditions: read-out: Stability
[4] = target: Kappa-type opioid receptor (Cavia porcellus, UniProt P41144); assay: Displacement of [3H]nor-BNI from KOR in Dunkin Hartley guinea pig brain homogenates after 180 mins by liquid scintillation counting analysis
Mu-type opioid receptor [5] = target: Mu-type opioid receptor (Rattus norvegicus, UniProt P33535); assay: Displacement of [3H]DAMGO from MOR in Wistar rat brain homogenates after 180 mins by liquid scintillation counting analysis
[6] = target: Delta-type opioid receptor (Rattus norvegicus, UniProt P33533); assay: Displacement of [3H][Ile5,6]deltorphin-2 from DOR in Wistar rat brain homogenates after 180 mins by liquid scintillation counting analysis
[7] = target: Delta-type opioid receptor (Homo sapiens) (UniProt P41143); assay: Agonist activity at human recombinant DOR expressed in CHO cells assessed as calcium mobilization up to 1 uM by Fluo-4 AM based fluorescence analysis; assay type: functional, cell-based
Mu-type opioid receptor [8] = target: T1, Mu-type opioid receptor; assay: Agonist activity at human recombinant MOR expressed in CHO cells assessed as calcium mobilization by Fluo-4 AM based fluorescence analysis relative to EM2; assay type: functional, cell-based

Sequence of Kappa-type opioid receptor (P41144 whole entry): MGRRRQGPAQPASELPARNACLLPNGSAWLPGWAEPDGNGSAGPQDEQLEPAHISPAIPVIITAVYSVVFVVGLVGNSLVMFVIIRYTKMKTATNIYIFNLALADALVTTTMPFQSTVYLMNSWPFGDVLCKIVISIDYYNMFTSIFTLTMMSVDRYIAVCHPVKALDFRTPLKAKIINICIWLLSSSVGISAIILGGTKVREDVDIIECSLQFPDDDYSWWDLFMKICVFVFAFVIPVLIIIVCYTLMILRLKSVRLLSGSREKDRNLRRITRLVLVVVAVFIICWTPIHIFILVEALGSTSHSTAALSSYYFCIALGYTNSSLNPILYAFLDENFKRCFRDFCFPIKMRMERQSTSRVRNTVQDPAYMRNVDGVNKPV
Sequence of Delta-type opioid receptor (Homo sapiens) (P41143 whole entry): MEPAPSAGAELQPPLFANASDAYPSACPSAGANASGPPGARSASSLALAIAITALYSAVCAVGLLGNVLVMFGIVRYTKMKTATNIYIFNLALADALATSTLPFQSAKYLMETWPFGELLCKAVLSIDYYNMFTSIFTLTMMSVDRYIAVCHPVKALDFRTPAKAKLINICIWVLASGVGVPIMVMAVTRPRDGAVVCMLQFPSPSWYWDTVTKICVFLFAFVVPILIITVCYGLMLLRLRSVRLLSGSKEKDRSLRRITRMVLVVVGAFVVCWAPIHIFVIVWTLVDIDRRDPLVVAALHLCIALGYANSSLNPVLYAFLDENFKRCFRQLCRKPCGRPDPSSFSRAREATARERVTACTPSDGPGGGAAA
Sequence of Kappa-type opioid receptor (Homo sapiens) (P41145 whole entry): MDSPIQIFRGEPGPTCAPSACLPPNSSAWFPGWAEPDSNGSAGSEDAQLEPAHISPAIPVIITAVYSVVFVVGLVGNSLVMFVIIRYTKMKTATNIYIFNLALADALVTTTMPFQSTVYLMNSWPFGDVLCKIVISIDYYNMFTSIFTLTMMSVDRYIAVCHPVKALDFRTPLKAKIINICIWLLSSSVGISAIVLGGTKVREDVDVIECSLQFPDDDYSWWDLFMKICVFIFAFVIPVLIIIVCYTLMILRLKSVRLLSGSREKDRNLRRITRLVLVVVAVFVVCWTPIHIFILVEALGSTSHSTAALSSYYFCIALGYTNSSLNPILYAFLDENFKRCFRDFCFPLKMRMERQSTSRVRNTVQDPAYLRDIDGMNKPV
T1 sequence (P35372 whole entry): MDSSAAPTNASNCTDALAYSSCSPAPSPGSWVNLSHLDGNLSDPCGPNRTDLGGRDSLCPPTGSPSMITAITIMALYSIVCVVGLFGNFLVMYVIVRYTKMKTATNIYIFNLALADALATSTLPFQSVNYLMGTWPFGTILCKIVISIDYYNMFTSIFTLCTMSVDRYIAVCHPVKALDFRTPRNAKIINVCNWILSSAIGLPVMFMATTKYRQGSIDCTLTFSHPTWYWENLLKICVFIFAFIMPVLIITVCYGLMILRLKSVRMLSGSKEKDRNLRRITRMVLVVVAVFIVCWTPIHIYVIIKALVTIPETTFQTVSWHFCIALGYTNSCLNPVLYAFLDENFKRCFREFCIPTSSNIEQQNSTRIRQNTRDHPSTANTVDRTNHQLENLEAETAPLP
Sequence of Delta-type opioid receptor (P33533 whole entry): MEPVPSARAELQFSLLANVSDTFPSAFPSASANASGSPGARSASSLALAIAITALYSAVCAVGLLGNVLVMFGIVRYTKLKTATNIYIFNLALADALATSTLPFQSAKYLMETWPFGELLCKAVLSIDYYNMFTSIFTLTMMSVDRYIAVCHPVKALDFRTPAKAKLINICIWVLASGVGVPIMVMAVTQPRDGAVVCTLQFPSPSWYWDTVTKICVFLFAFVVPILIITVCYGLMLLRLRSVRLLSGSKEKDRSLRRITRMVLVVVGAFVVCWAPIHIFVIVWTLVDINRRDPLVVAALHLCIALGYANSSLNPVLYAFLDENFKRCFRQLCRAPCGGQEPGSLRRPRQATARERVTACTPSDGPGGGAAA
Sequence of Mu-type opioid receptor (Rattus norvegicus, UniProt P33535) (P33535 whole entry): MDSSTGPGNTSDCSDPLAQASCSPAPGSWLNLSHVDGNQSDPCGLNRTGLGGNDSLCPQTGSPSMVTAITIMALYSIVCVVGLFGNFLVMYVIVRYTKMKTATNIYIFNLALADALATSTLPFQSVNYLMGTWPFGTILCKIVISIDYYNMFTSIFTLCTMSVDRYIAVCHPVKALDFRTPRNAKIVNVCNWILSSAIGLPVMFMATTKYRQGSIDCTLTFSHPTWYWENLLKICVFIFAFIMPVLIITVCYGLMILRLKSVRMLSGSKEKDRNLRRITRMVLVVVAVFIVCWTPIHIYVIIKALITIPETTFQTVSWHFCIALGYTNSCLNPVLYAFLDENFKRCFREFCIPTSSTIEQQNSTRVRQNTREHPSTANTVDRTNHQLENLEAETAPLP

| SMILES | Activity [1] | pEC50 (Mu-type opioid receptor [2]) | remaining at 1.5 h, 500 µM [3] | Ki ([4]; read-out: Ki) | Ki (Mu-type opioid receptor [5]; read-out: Ki) | Ki ([6]; read-out: Ki) | Activity [7] | EC50 (Mu-type opioid receptor [2]) | Intrinsic activity (Mu-type opioid receptor [8]) | Ki [4] | Ki (Mu-type opioid receptor [5]) | Ki [6] |
| --- | --- | --- | --- | --- | --- | --- | --- | --- | --- | --- | --- | --- |
| CN[C@@H](Cc1ccc(O)cc1)C(=O)N[C@@H]1CCCCNC(=O)C[C@@H](C(N)=O)NC(=O)CNC(=O)[C@H](Cc2ccccc2)N(C)C(=O)[C@H](Cc2ccccc2)N(C)C(=O)CNC1=O | inactive | inactive | 97.4% | > 1 µM | 0.106 µM | > 1 µM | inactive |  |  |  |  |  |
| CN[C@@H](Cc1ccc(O)cc1)C(=O)N[C@@H]1CCCCNC(=O)C[C@@H](C(N)=O)NC(=O)[C@H](Cc2ccccc2)N(C)C(=O)CNC(=O)[C@H](Cc2ccccc2)N(C)C1=O |  |  | 97% | 0.519 µM | 0.0765 µM | > 1 µM |  |  |  |  |  |  |
| CN[C@@H](Cc1ccc(O)cc1)C(=O)N[C@@H]1CCCCNC(=O)C[C@@H](C(N)=O)NC(=O)[C@H](Cc2ccccc2)N(C)C(=O)[C@H](Cc2ccccc2)NC1=O | inactive |  | 97.2% | > 1 µM | 0.00073 µM | > 1 µM | inactive | 0.0102 µM | 0.93 |  |  |  |
| CN[C@@H](Cc1ccc(O)cc1)C(=O)N[C@@H]1CCCCNC(=O)C[C@@H](C(N)=O)NC(=O)[C@H](Cc2ccccc2)N(C)C(=O)[C@H](Cc2ccccc2)N(C)C1=O |  |  | 96.9% |  |  |  |  |  |  | Nd(Insoluble) | Nd(Insoluble) | Nd(Insoluble) |
| CN[C@H](Cc1ccc(O)cc1)C(=O)N[C@H]1CCCCNC(=O)C[C@@H](C(N)=O)NC(=O)[C@H](Cc2ccccc2)N(C)C(=O)CNC(=O)[C@H](Cc2ccccc2)N(C)C1=O | inactive | inactive |  |  |  |  | inactive |  |  |  |  |  |
